Results published in patent US11912693B2, “Compounds for modulating S1P1 activity and methods of using the same” (TREVENA, INC., priority 2017, dated 2024).

Tests used:
[1] = target: T1, human sphingosine-1-phosphate receptor 1 (S1P1) (Homo sapiens (Human), UniProt P21453); experiment: Inhibition of cAMP production (HTRF cAMP HiRange), S1P1 CHO-K1 cells; format: cell-based; settings: for hS1P1 cAMP pEC50: inhibition of cAMP production, S1P1 CHO-K1 cells; for Emax: CHO-K1, efficacy (SPAN) normalized to fingolimod, read-out: hS1P1 cAMP SPAN
How it was run: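 CHO-K1 cells stably co-expressing human S1P1 (C-terminal Prolink tag) and EA-β-arrestin2 were grown in AssayComplete Media 6 at 37° C. and 5% CO2, plated, and incubated overnight. Agonist-driven inhibition of intracellular cAMP was read by TR-FRET with the HTRF cAMP HiRange kit on a PheraStar reader. Potency is pEC50, and efficacy (SPAN) is normalized to fingolimod.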
Target sequence in this assay (P21453 whole entry, looked up): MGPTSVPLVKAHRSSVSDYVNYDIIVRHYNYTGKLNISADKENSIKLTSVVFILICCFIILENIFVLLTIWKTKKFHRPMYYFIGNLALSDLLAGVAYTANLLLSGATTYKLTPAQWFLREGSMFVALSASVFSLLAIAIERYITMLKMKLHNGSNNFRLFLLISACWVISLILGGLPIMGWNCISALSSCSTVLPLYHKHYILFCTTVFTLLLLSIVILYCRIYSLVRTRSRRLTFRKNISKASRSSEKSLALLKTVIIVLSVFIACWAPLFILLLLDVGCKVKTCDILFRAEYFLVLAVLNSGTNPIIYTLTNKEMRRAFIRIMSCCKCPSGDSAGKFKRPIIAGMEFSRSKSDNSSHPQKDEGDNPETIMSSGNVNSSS

[2] = target: T1, human sphingosine-1-phosphate receptor 1 (S1P1); experiment: β-Arrestin2 recruitment assay (PathHunter), S1P1 CHO-K1 cells; format: cell-based; settings: for hS1P1 B-arrestin2 pEC50: β-arrestin2 recruitment, S1P1 CHO-K1 cells; for Emax: CHO-K1, efficacy (SPAN) normalized to fingolimod, read-out: hS1P1 B-arrestin2 SPAN
How it was run: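 Enzyme-fragment complementation read-out: agonist-driven β-arrestin2 binding to ProLink-tagged human S1P1 in stable CHO-K1 cells restores β-galactosidase, measured 1 h at room temperature after a 60 min 37° C. compound incubation. Potency as pEC50, efficacy relative to fingolimod (SPAN).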
Target sequence in this assay (P21453 whole entry, looked up): as above
Target sequence in this assay (P32121 whole entry partner, looked up): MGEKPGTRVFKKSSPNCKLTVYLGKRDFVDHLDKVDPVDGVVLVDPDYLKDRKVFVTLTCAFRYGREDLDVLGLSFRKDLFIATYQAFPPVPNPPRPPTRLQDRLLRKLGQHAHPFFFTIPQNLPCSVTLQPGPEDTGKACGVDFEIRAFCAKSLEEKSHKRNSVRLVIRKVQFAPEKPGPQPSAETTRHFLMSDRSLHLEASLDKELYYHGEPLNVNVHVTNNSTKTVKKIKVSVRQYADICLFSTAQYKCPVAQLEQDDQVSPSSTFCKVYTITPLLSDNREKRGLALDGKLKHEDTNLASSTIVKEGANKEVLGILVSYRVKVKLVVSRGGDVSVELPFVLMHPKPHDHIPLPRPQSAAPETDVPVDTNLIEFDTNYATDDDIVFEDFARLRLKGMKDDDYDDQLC

hS1P1 cAMP pEC50 [1]	hS1P1 B-arrestin2 pEC50 [2]	Emax [1]	Emax [2]	SMILES
<6.5	<5	< 75%	< 75%	O=C1CCOc2ccc(-c3nc(-c4cccnc4)no3)cc21 [Compound 102, 6-[3-(pyridin-3-yl)-1,2,4-oxadiazol-5-yl]-3,4-dihydro-2H-1-benzopyran-4-one]
<6.5	<5	< 75%	< 75%	c1ccc(Oc2ccc(-c3noc(-c4ccc5c(c4)nnn5C4CC4)n3)cc2)cc1 [Compound 285, 1-cyclopropyl-5-[3-(4-phenoxyphenyl)-1,2,4-oxadiazol-5-yl]-1H-1,2,3-benzotriazole]
<6.5	<5			CCC1(CC)CC(=O)c2cc(-c3nc(-c4ccc5cnccc5c4)no3)ccc2O1 [Compound 522, 2,2-diethyl-6-(3-(isoquinolin-6-yl)-1,2,4-oxadiazol-5-yl)chroman-4-one]
<6.5	<5			COc1cccc(-c2nc(-c3ccc4c(ccn4C(C)C)c3)no2)c1 [Compound 392, 3-(1-isopropyl-1H-indol-5-yl)-5-(3-methoxyphenyl)-1,2,4-oxadiazole]
<6.5	>5	< 75%	< 75%	COc1ccc(-c2nc(-c3ccc4c(c3)nnn4C(C)C)no2)cc1 [Compound 69, 3-(1-isopropylbenzotriazol-5-yl)-5-(4-methoxyphenyl)-1,2,4-oxadiazole]

Second part, the compound before the results:

SMILES	hS1P1 cAMP pEC50 [1]	hS1P1 B-arrestin2 pEC50 [2]	Emax [1]	Emax [2]
FC(F)(F)c1cccc(-c2noc(-c3ccc4c(c3)nnn4C3CCCC3)n2)c1 [Compound 118, 1-cyclopentyl-5-{3-[3-(trifluoromethyl)phenyl]-1,2,4-oxadiazol-5-yl}-1H-1,2,3-benzotriazole]	<6.5	<5		
Cc1ccccc1-c1cnc(-c2ccc3c(c2)nnn3C(C)C)s1 [Compound 216, 2-(1-isopropylbenzotriazol-5-yl)-5-(o-tolyl)thiazole]	<6.5	<5	< 75%	< 75%
Cc1ccsc1-c1noc(-c2ccc3c(c2)nnn3C2CCCC2)n1 [Compound 46, 1-cyclopentyl-5-[3-(3-methylthiophen-2-yl)-1,2,4-oxadiazol-5-yl]-1H-1,2,3-benzotriazole]	>6.5	>5		
O=C1CCOc2ccc(-c3nc(-c4ccncc4)no3)cc21 [Compound 57, 6-[3-(pyridin-4-yl)-1,2,4-oxadiazol-5-yl]-3,4-dihydro-2H-1-benzopyran-4-one]	<6.5	<5		
CC(C)n1nnc2cc(-c3ncc(-c4cccc(F)c4)s3)ccc21 [Compound 110, 5-(3-fluorophenyl)-2-(1-isopropyl-1H-benzo[d][1,2,3]triazol-5-yl)thiazole]	<6.5	<5	< 75%	< 75%
Cc1ccsc1-c1noc(-c2ccc3c(c2)nnn3CC(C)(C)O)n1 [Compound 140, 2-methyl-1-{5-[3-(3-methylthiophen-2-yl)-1,2,4-oxadiazol-5-yl]-1H-1,2,3-benzotriazol-1-yl}propan-2-ol]	>6.5	>5	> 75%	> 75%
CCC1(CC)CC(=O)c2cc(-c3nc(-c4ccncc4O)no3)ccc2O1 [Compound 312, 2,2-diethyl-6-(3-(3-hydroxypyridin-4-yl)-1,2,4-oxadiazol-5-yl)chroman-4-one]	<6.5	<5	> 75%	> 75%
Cc1ccc(-c2noc(-c3ccc4c(c3)nnn4C3CC3)n2)cn1 [Compound 87, 1-cyclopropyl-5-[3-(6-methylpyridin-3-yl)-1,2,4-oxadiazol-5-yl]-1H-1,2,3-benzotriazole]	<6.5	<5	< 75%	< 75%
